According to paper PMC4921109 (Cancer Chemotherapy and Pharmacology, 2016):
Entries after “also recorded” stand apart in the source; their conditions may differ. Where two headings read alike, the source gives them in different places.

Experiments:
[1] = cited from earlier work
[2] = Phase Ib drug–drug interaction study: safety and tolerability (adverse events); assay type: in vivo, human
From the text: This was a phase Ib, open-label, four-arm, parallel design, multicenter, multiple-dose study in healthy female subjects of non-childbearing potential. Subjects were randomly assigned to 1 of 4 treatment arms in a 1:1:1:1 ratio with stratification according to AAG concentration [low (0.5–0.73 g/L), medium (0.74–0.96 g/L), or high (0.97–1.2 g/L)].

CYP2C9 and CYP3A4 = conditions: cited from earlier work
[3] = unbound vismodegib; geometric mean (CV %); 2, 6 and 12 h postdose on day 7 (day 11 in Arm B); vismodegib 150 mg QD
Method: PK parameters were calculated using noncompartmental methods with WinNonlin (Pharsight Corporation, Mountain View, CA; Version 5.2); the PK analysis used actual times as recorded on the case report form.

[4] = vismodegib; ANOVA, back-transformed; day 7 (day 11 in Arm B)
[5] = set-up: method as in PMID 19845436; conditions: cited from earlier work
[6] = cited from earlier work; remark: listed apart in the source
Caco-2 cells = conditions: cited from earlier work
P-glycoprotein (P-gp) = conditions: MDCK cells overexpressing P-gp; cited from earlier work
human hepatocytes = system: human hepatocytes; set-up: method as in PMID 19845436; conditions: 3-h incubation with human hepatocytes; cited from earlier work
clinical = conditions: female, human, plasma, po, 150 mg
[7] = cited from earlier work; remark: listed apart in the source
[8] = number of subjects (percent), safety population

COC(=O)N[C@H](C(=O)N[C@@H](Cc1ccccc1)[C@@H](O)CN(Cc1ccc(-c2ccccn2)cc1)NC(=O)[C@@H](NC(=O)OC)C(C)(C)C)C(C)(C)C [atazanavir]
Change in bioavailability on co-administration of the PPI lansoprazole [1]: large reduction

CC(=O)N1CCN(c2ccc(OCC3COC(Cn4ccnc4)(c4ccc(Cl)cc4Cl)O3)cc2)CC1 (centres unmarked) [ketoconazole]
Impairment of absorption by acid-reducing agents [1]: more than 90%

CS(=O)(=O)c1ccc(C(=O)Nc2ccc(Cl)c(-c3ccccn3)c2)c(Cl)c1 [Vismodegib, 2-chloro-N-(4-chloro-3-(pyridin-2-yl)phenyl)-4-(methylsulfonyl) benzamide]
Most frequent AEs related to vismodegib: constipation ([2]; across the study): 10.5% | Most frequent AEs related to vismodegib: diarrhea ([2]; across the study): 8.0% | Most frequent AEs related to vismodegib: headache ([2]; across the study): 10.5% | Most frequent AEs related to vismodegib: nausea ([2]; across the study): 9.3% | Treatment-emergent AE: Abdominal distention [2, 8]: 1 (4.5) | Treatment-emergent AE: Abdominal pain [2, 8]: 1 (4.5) | Treatment-emergent AE: Constipation [2, 8]: 4 (18.2) | Treatment-emergent AE: Diarrhea [2, 8]: 1 (4.5) | Treatment-emergent AE: Dizziness [2, 8]: 2 (9.1) | Treatment-emergent AE: Flatulence [2, 8]: 1 (4.5) | Treatment-emergent AE: Headache [2, 8]: 4 (18.2) | Treatment-emergent AE: Nausea [2, 8]: 2 (9.1) | Treatment-emergent AE: Pruritus [2, 8]: 0 | Treatment-emergent AE: Rash [2, 8]: 0 | Number of treatment-emergent AEs considered related to vismodegib ([2]; of the 127 treatment-emergent AEs): 92 | Metabolizing enzymes (CYP2C9 and CYP3A4): primarily metabolized by CYP2C9 and CYP3A4 | Css,ave,u (average unbound plasma concentration at steady state) [3]: 0.150 (50.2) µmol/L | Geometric LS mean of AUC0–24h at steady state [4]: 402 µM·h | Predicted preclinical efficacious levels (unbound concentration range required for efficacy) [5]: 0.042 to 0.068 µM | Absolute bioavailability at steady state [6]: less than 10% | Change in steady-state plasma concentrations with dose ([6]; daily dose increased from 150 to 270 or 540 mg): no increase | Increase in total clearance with multiple dosing ([6]; healthy subjects): 81% | Oral steady-state AUC0–24h after multiple dosing compared with AUC from zero to infinity after a single dose ([6]; healthy subjects): approximately eightfold lower | PK variability explained by AAG levels ([6]; patients): > 70% | PK variability explained by AAG levels ([6]; ref data on file): > 70% | Terminal elimination half-life ([6]; single dose): 288 h | Permeability (Caco-2 cells): high permeability | P-gp substrate status (P-glycoprotein (P-gp)): weak substrate of P-gp; also recorded: P-glycoprotein (P-gp) substrate | Parent remaining (human hepatocytes): 96% | AUC(0-t) (clinical): 140 µM·h | Cmax (clinical): 7 µM | Tmax (clinical): 6 h | Decrease in solubility from pH 2 to 7 [7]: 10,000 fold
